According to ChEMBL document CHEMBL3217615, “Novel 3,5-bis(arylidiene)-4-piperidone based monocarbonyl analogs of curcumin: anticancer activity evaluation and mode of action study” (2014):

Key:
Type in all cases: functional
NCI-H23 = assay: Growth inhibition of human NCI-H23 cells assessed as cell growth at 10^-8 M after 48 hrs by sulforhodamine B assay; conditions: NCI-H23, 48 h; for growth at 0.01 µM: read-out: Activity; for TGI: read-out: pTGI (converted)
[1] = Growth inhibition of human OVCAR4 cells after 48 hrs by sulforhodamine B assay; conditions: OVCAR-4, 48 h; for CC50: read-out: LC50 (the source's name)
[2] = Growth inhibition of human OVCAR8 cells assessed as cell growth at 10^-7 M after 48 hrs by sulforhodamine B assay; conditions: OVCAR-8, 48 h, read-out: Activity
A498 = assay: Growth inhibition of human A498 cells assessed as cell growth at 10^-8 M after 48 hrs by sulforhodamine B assay; conditions: A498, 48 h; for growth at 0.01 µM: read-out: Activity; for TGI: read-out: pTGI (converted)
ACHN [3] = assay: Growth inhibition of human ACHN cells assessed as cell growth at 10^-4 M after 48 hrs by sulforhodamine B assay; conditions: read-out: Activity
HOP-62 = assay: Growth inhibition of human HOP62 cells assessed as cell growth at 10^-6 M after 48 hrs by sulforhodamine B assay; conditions: HOP-62, 48 h, read-out: Activity
MCF7 = assay: Growth inhibition of human MCF7 cells assessed as cell growth at 10^-6 M after 48 hrs by sulforhodamine B assay; conditions: MCF7, 48 h, read-out: Activity
COLO 205 = assay: Induction of apoptosis in human COLO205 cells assessed as DNA fragmentation at 10 uM
SK-MEL-28 [4] = assay: Growth inhibition of human SK-MEL-28 cells assessed as cell growth at 10^-4 M after 48 hrs by sulforhodamine B assay; conditions: SK-MEL-28, 48 h, read-out: Activity
[5] = Growth inhibition of human SF539 cells assessed as cell growth at 10^-4 M after 48 hrs by sulforhodamine B assay; conditions: SF-539, 48 h, read-out: Activity
SNB-19 = assay: Growth inhibition of human SNB19 cells assessed as cell growth at 10^-6 M after 48 hrs by sulforhodamine B assay; conditions: SNB-19, 48 h, read-out: Activity
SN12C [6] = assay: Growth inhibition of human SN12C cells assessed as cell growth at 10^-7 M after 48 hrs by sulforhodamine B assay; conditions: read-out: Activity
HCT-116 [7] = assay: Growth inhibition of human HCT116 cells assessed as cell growth at 10^-7 M after 48 hrs by sulforhodamine B assay; conditions: HCT-116, 48 h, read-out: Activity
CAKI-1 = assay: Growth inhibition of human CAKI-1 cells assessed as cell growth at 10^-6 M after 48 hrs by sulforhodamine B assay; conditions: CAKI-1, 48 h, read-out: Activity
SK-MEL-2 [8] = assay: Growth inhibition of human SK-MEL-2 cells assessed as cell growth at 10^-8 M after 48 hrs by sulforhodamine B assay; conditions: SK-MEL-2, 48 h; for growth at 0.01 µM: read-out: Activity; for TGI: read-out: pTGI (converted)
A549 = assay: Growth inhibition of human A549/ATCC cells assessed as cell growth at 10^-8 M after 48 hrs by sulforhodamine B assay; conditions: A549, 48 h; for growth at 0.01 µM: read-out: Activity; for TGI: read-out: pTGI (converted)
[9] = Growth inhibition of human HCT15 cells assessed as cell growth at 10^-8 M after 48 hrs by sulforhodamine B assay; conditions: HCT-15, 48 h; for growth at 0.01 µM: read-out: Activity; for TGI: read-out: pTGI (converted)
ACHN [10] = assay: Growth inhibition of human ACHN cells assessed as cell growth at 10^-8 M after 48 hrs by sulforhodamine B assay; conditions: for growth at 0.01 µM: read-out: Activity; for TGI: read-out: pTGI (converted)
SK-MEL-5 = assay: Growth inhibition of human SK-MEL-5 cells assessed as cell growth at 10^-4 M after 48 hrs by sulforhodamine B assay; conditions: SK-MEL-5, 48 h, read-out: Activity
[11] = Growth inhibition of human HCC2998 cells assessed as cell growth at 10^-7 M after 48 hrs by sulforhodamine B assay; conditions: HCC 2998, 48 h, read-out: Activity
786-0 [12] = assay: Growth inhibition of human 786-0 cells assessed as cell growth at 10^-8 M after 48 hrs by sulforhodamine B assay; conditions: 786-0, 48 h; for growth at 0.01 µM: read-out: Activity; for TGI: read-out: pTGI (converted)
SN12C [13] = assay: Growth inhibition of human SN12C cells assessed as cell growth at 10^-8 M after 48 hrs by sulforhodamine B assay; conditions: for growth at 0.01 µM: read-out: Activity; for TGI: read-out: pTGI (converted)
[14] = Growth inhibition of human LOXIMVI cells after 48 hrs by sulforhodamine B assay; conditions: LOX IMVI
[15] = Growth inhibition of human MOLT4 cells assessed as cell growth at 10^-7 M after 48 hrs by sulforhodamine B assay; conditions: MOLT-4, 48 h, read-out: Activity
NCI-H322M = assay: Growth inhibition of human NCI-H322M cells assessed as cell growth at 10^-8 M after 48 hrs by sulforhodamine B assay; conditions: for growth at 0.01 µM: read-out: Activity; for TGI: read-out: pTGI (converted)
HCT-116 [16] = assay: Growth inhibition of human HCT116 cells after 48 hrs by sulforhodamine B assay; conditions: HCT-116, 48 h; for CC50: read-out: LC50 (the source's name)
[17] = Growth inhibition of human OVCAR5 cells assessed as cell growth at 10^-4 M after 48 hrs by sulforhodamine B assay; conditions: OVCAR-5, 48 h, read-out: Activity
SK-MEL-2 [18] = assay: Growth inhibition of human SK-MEL-2 cells assessed as cell growth at 10^-5 M after 48 hrs by sulforhodamine B assay; conditions: SK-MEL-2, 48 h, read-out: Activity
KM12 = assay: Growth inhibition of human KM12 cells after 48 hrs by sulforhodamine B assay; conditions: KM12, 48 h; for CC50: read-out: LC50 (the source's name)
786-0 [19] = assay: Growth inhibition of human 786-0 cells assessed as cell growth at 10^-6 M after 48 hrs by sulforhodamine B assay; conditions: 786-0, 48 h, read-out: Activity
SK-MEL-28 [20] = assay: Growth inhibition of human SK-MEL-28 cells assessed as cell growth at 10^-7 M after 48 hrs by sulforhodamine B assay; conditions: SK-MEL-28, 48 h, read-out: Activity
NCI-H522 = assay: Growth inhibition of human NCI-H522 cells assessed as cell growth at 10^-6 M after 48 hrs by sulforhodamine B assay; conditions: NCI-H522, 48 h, read-out: Activity

## O=C1/C(=C/c2ccc(Cl)cc2Cl)CN(S(=O)(=O)c2ccccc2)C/C1=C\c1ccc(Cl)cc1Cl
NCI-H23
  GI50: 427 nM
  LC50: > 100000 nM
  growth at 0.01 µM: 103%
  TGI: 2690 nM
[1]
  GI50: 279 nM
  TGI: > 100000 nM
  CC50: > 100000 nM
[2]
  growth at 0.1 µM: 94%
A498
  GI50: 724 nM
  LC50: > 100000 nM
  growth at 0.01 µM: 67%
  TGI: 4370 nM
ACHN [3]
  growth at 100 µM: -17%
HOP-62
  growth at 1 µM: 5%
MCF7
  growth at 1 µM: 14%
COLO 205
  Activity: 45%
SK-MEL-28 [4]
  growth at 100 µM: 42%
[5]
  growth at 100 µM: -40%
SNB-19
  growth at 1 µM: 10%
SN12C [6]
  growth at 0.1 µM: 92%
HCT-116 [7]
  growth at 0.1 µM: 95%
CAKI-1
  growth at 1 µM: 77%
SK-MEL-2 [8]
  GI50: 6030 nM
  LC50: > 100000 nM
  growth at 0.01 µM: 101%
  TGI: > 100000 nM
A549
  GI50: 275 nM
  LC50: > 100000 nM
  growth at 0.01 µM: 93%
  TGI: 891 nM
[9]
  GI50: 245 nM
  LC50: > 100000 nM
  growth at 0.01 µM: 95%
  TGI: 759 nM
ACHN [10]
  GI50: 871 nM
  LC50: > 100000 nM
  growth at 0.01 µM: 99%
  TGI: 4570 nM
SK-MEL-5
  growth at 100 µM: 60%
[11]
  growth at 0.1 µM: 102%
786-0 [12]
  GI50: 240 nM
  LC50: 1700 nM
  growth at 0.01 µM: 101%
  TGI: 550 nM
SN12C [13]
  GI50: 245 nM
  LC50: > 100000 nM
  growth at 0.01 µM: 93%
  TGI: 724 nM
[14]
  GI50: 203 nM
  TGI: 508 nM
[15]
  growth at 0.1 µM: 106%
NCI-H322M
  GI50: 676 nM
  LC50: > 100000 nM
  growth at 0.01 µM: 107%
  TGI: 3550 nM
HCT-116 [16]
  GI50: 198 nM
  TGI: 424 nM
  CC50: 908 nM
[17]
  growth at 100 µM: -2%
SK-MEL-2 [18]
  growth at 10 µM: 36%
KM12
  GI50: 256 nM
  TGI: 602 nM
  CC50: 25700 nM
786-0 [19]
  growth at 1 µM: -37%
SK-MEL-28 [20]
  growth at 0.1 µM: 93%
NCI-H522
  growth at 1 µM: 47%

## Cc1ccc(S(=O)(=O)N2C/C(=C\c3cc(F)cc(F)c3)C(=O)/C(=C/c3cc(F)cc(F)c3)C2)cc1
NCI-H23
  GI50: 1740 nM
  LC50: 26900 nM
  growth at 0.01 µM: 98%
  TGI: 5010 nM
[1]
  GI50: 441 nM
  TGI: 5230 nM
  CC50: 36300 nM
[2]
  growth at 0.1 µM: 82%
A498
  GI50: 1860 nM
  LC50: 8710 nM
  growth at 0.01 µM: 96%
  TGI: 4070 nM
ACHN [3]
  growth at 100 µM: -94%
HOP-62
  growth at 1 µM: 93%
MCF7
  growth at 1 µM: 12%
COLO 205
  Activity: 69.5%
SK-MEL-28 [4]
  growth at 100 µM: -98%
[5]
  growth at 100 µM: -94%
SNB-19
  growth at 1 µM: -12%
SN12C [6]
  growth at 0.1 µM: 94%
HCT-116 [7]
  growth at 0.1 µM: 89%
CAKI-1
  growth at 1 µM: 16%
SK-MEL-2 [8]
  GI50: 2000 nM
  LC50: 14800 nM
  growth at 0.01 µM: 105%
  TGI: 4680 nM
A549
  GI50: 2880 nM
  LC50: > 100000 nM
  growth at 0.01 µM: 94%
  TGI: 14800 nM
[9]
  GI50: 251 nM
  LC50: 30900 nM
  growth at 0.01 µM: 91%
  TGI: 1290 nM
ACHN [10]
  GI50: 245 nM
  LC50: 2400 nM
  growth at 0.01 µM: 101%
  TGI: 617 nM
SK-MEL-5
  growth at 100 µM: -97%
[11]
  growth at 0.1 µM: 105%
786-0 [12]
  GI50: 589 nM
  LC50: 4900 nM
  growth at 0.01 µM: 104%
  TGI: 1910 nM
SN12C [13]
  GI50: 339 nM
  LC50: 4270 nM
  growth at 0.01 µM: 95%
  TGI: 1320 nM
[14]
  GI50: 175 nM
  TGI: 339 nM
[14]; read-out: LC50 (the source's name)
  CC50: 656 nM
[15]
  growth at 0.1 µM: 88%
NCI-H322M
  GI50: 4680 nM
  LC50: > 100000 nM
  growth at 0.01 µM: 102%
  TGI: 22900 nM
HCT-116 [16]
  GI50: 209 nM
  TGI: 543 nM
  CC50: 1940 nM
[17]
  growth at 100 µM: -90%
SK-MEL-2 [18]
  growth at 10 µM: -44%
KM12
  GI50: 327 nM
  TGI: 1000 nM
  CC50: 4040 nM
786-0 [19]
  growth at 1 µM: 34%
SK-MEL-28 [20]
  growth at 0.1 µM: 93%
NCI-H522
  growth at 1 µM: -2%
